Data reported in PubChem BioAssay AID1963428 (Molecular Pharmacology Branch, DTP, NCI, 2024).

Tested on: 171881-019-R-J1-PDC complex spheroid growth, % test/control
Assay: Anticancer human tumor 171881-019-R-J1-PDC patient-derived invasive breast carcinoma cell line growth inhibition [Asc]
Details: for IC50: curve of first compound; for viability, T/C: stronger effect = lower value; active = viability on the fitted dose curve at most 10% of control; inactive = the rest
In short: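 Stromal components (HUVEC and hMSC) are co-assembled with the cancer cells into multicellular spheroids. Drugs are then added singly or paired, at concentrations falling by half-log increments from a clinically achievable maximum, capped at 10 microM without known Cmax.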
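For viability, T/C in this document: spheroids exposed to compounds for 7 days.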

Cn1ncnc1[C@H]1c2n[nH]c(=O)c3cc(F)cc(c23)N[C@@H]1c1ccc(F)cc1 + Cc1c(S(C)(=O)=O)c(-c2cc(F)cc(N3CCN(c4ccc(NS(=O)(=O)c5ccc(NC(CCN6CCC(C(=O)OCCCP(=O)(O)O)CC6)CSc6ccccc6)c(S(=O)(=O)C(F)(F)F)c5)cc4)CC3)c2)c(-c2ccc(Cl)cc2)n1C(C)C
> 100 nM: IC50 (second compound 0.1 µM) | IC50 (second compound 0.316 µM) | IC50 (second compound 1 µM) | IC50 (second compound 3.16 µM) | IC50 (second compound 10 µM)
inactive: viability, T/C (second compound 0.1 µM, first compound 0.000316 µM) 86.8% | viability, T/C (second compound 0.1 µM, first compound 0.001 µM) 108% | viability, T/C (second compound 0.1 µM, first compound 0.00316 µM) 103% | viability, T/C (second compound 0.1 µM, first compound 0.01 µM) 115% | viability, T/C (second compound 0.1 µM, first compound 0.0316 µM) 108% | viability, T/C (second compound 0.1 µM, first compound 0.1 µM) 100% | viability, T/C (second compound 0.316 µM, first compound 0.000316 µM) 111% | viability, T/C (second compound 0.316 µM, first compound 0.001 µM) 130% | viability, T/C (second compound 0.316 µM, first compound 0.00316 µM) 107% | viability, T/C (second compound 0.316 µM, first compound 0.01 µM) 120% | viability, T/C (second compound 0.316 µM, first compound 0.0316 µM) 129% | viability, T/C (second compound 0.316 µM, first compound 0.1 µM) 129% | viability, T/C (second compound 1 µM, first compound 0.000316 µM) 136% | viability, T/C (second compound 1 µM, first compound 0.001 µM) 145% | viability, T/C (second compound 1 µM, first compound 0.00316 µM) 123% | viability, T/C (second compound 1 µM, first compound 0.01 µM) 159% | viability, T/C (second compound 1 µM, first compound 0.0316 µM) 143% | viability, T/C (second compound 1 µM, first compound 0.1 µM) 192% | viability, T/C (second compound 3.16 µM, first compound 0.000316 µM) 168% | viability, T/C (second compound 3.16 µM, first compound 0.001 µM) 155% | viability, T/C (second compound 3.16 µM, first compound 0.00316 µM) 186% | viability, T/C (second compound 3.16 µM, first compound 0.01 µM) 178% | viability, T/C (second compound 3.16 µM, first compound 0.0316 µM) 192% | viability, T/C (second compound 3.16 µM, first compound 0.1 µM) 173% | viability, T/C (second compound 10 µM, first compound 0.000316 µM) 210% | viability, T/C (second compound 10 µM, first compound 0.001 µM) 203% | viability, T/C (second compound 10 µM, first compound 0.00316 µM) 214% | viability, T/C (second compound 10 µM, first compound 0.01 µM) 208% | viability, T/C (second compound 10 µM, first compound 0.0316 µM) 192% | viability, T/C (second compound 10 µM, first compound 0.1 µM) 181%
